Measured values taken from patent US8980575B2, “Process to avoid inhibition of acetogens by CO” (Ineos Bio SA, priority 2012, dated 2015).

How the values were obtained:
Clostridium ljungdahlii [1] = experiment: Fermentation with high CO feed-gas, head-space CO partial pressure control (Example 1); assay type: cell-based; details: 95% CO/5% N2 feed gas, head-space CO controlled; inoculum 1.28 g/l; within 41.4 hours after inoculation
Procedure: (§1) New Brunswick and CelliGen 310 bioreactors containing modified 1× ethanol medium were inoculated with 1.28 g/l of actively growing (in syngas) Clostridium ljungdahlii. Before inoculation, the rate of agitation of the reactor was set to 800 rpm. Gas and liquid samples taken from the reactor at every 1 to 4 hour intervals were analyzed for consumption or production of various gas components, broth acetic acid concentration, broth ethanol concentration and the optical density of the culture. Also the composition of the feed-gas was measured daily and the flow to the reactor was measured real time by the mass flow controller regulating feed-gas to the reactor. High CO composition feed gas of 95% CO/5% N2 was utilized.
The following method was used to regulate rate of gas supply to the reactor: X=(head space CO %/100)×(measured reactor pressure(psig)+atmospheric pressure/atmospheric pressure(14.7))
if x is 0.08 or below gas flow to the reactor was increased by 7.6% of the current mole value of gas flow rate to the reactor
if X is 0.12 or higher gas flow to the reactor was decreased by 7.6% of the current mole value of gas flow rate to the reactor
(§2) A Shimadzu GC-2014 gas chromatograph was used to measure the broth ethanol and acetic acid concentrations. SRI 8610c gas chromatograph was used to measure the components of the feed-gas.

[2] = tested on: Butyribacterium methylotrophicum; experiment: Fermentation with high CO feed-gas, head-space CO partial pressure control (Example 2); assay type: cell-based; details: 95% CO/5% N2 feed gas, head-space CO controlled; inoculum 0.92 g/l; within 68 hours after inoculation
Procedure: as §1, with “reactor” for “bioreactors”, “0.92” for “1.28”, “Butyribacterium methylotrophicum.” for “Clostridium ljungdahlii.”
The method described in Example 1 was used to regulate the rate of gas supply to the reactor.
as §2

Clostridium ljungdahlii [3] = experiment: Fermentation with low CO feed-gas (Example 3); assay type: cell-based; details: 9.5% CO/90.5% N2 feed gas, 534 ml/min; inoculum 0.38 g/l; within 90.6 hours after inoculation
Procedure: as §1, with “CelliGen 310 reactor containing modified” for “CelliGen 310 bioreactors containing modified”, “inoculated with 0.38 g/l of” for “inoculated with 1.28 g/l of”, “was measured in real time” for “was measured real time”, “the reactor.” for “the reactor. High CO composition feed gas of 95% CO/5% N2 was utilized.”
(§3) A CO composition feed gas of 9.5% CO/90.5% N2 was utilized and the flow was set to 534 ml/min. All through out the experiment the rate of feed gas to the reactor was not adjusted.
The method was utilized to keep the dissolved CO in the culture broth below 0.12 mmol/L at around 37 to 38° C. According to the Henry's Law, the maximum dissolved CO concentration that can be obtained by feeding a gas containing 9.5% is 0.079 mmol.
as §2

[4] = tested on: Butyribacterium methylotrophicum; experiment: Fermentation with low CO feed-gas (Example 4); assay type: cell-based; details: 9.5% CO/90.5% N2 feed gas, 534 ml/min; inoculum 0.86 g/l; within 44.4 hours after inoculation
Procedure: as §1, with “310 reactor” for “310 bioreactors”, “medium was” for “medium were”, “with 0.86” for “with 1.28”, “(in 5% CO/95% N2) Butyribacterium methylotrophicum. At the start of the experiment” for “(in syngas) Clostridium ljungdahlii. Before inoculation,”, “reactor.” for “reactor. High CO composition feed gas of 95% CO/5% N2 was utilized.”
as §3
This method was utilized to keep the dissolved CO in the culture broth below 0.12 mmol/l at around 37 to 38° C. According to the Henry's law the maximum dissolved CO concentration that can be obtained by feeding a gas containing 9.5% is 0.079 mmol.
as §2

Clostridium ljungdahlii [5] = experiment: Effect of CO feed rates on CO conversion (Example 5); assay type: cell-based
Procedure: Clostridium ljungdahlii was grown and maintained using only CO and N2 (feed gas) in a bioreactor (New Brunswick BioFlo I or IIc). During the experiment, rate of feed gas was altered to obtain desired culture conversions. Lower culture conversions were employed to provide excess dissolved CO to Clostridium ljungdahlii.
Low culture conversions of CO was used as s method to provide excess dissolved CO to the culture. For example, when a culture in a reactor can convert X amount of CO at a given agitation and at a given flow rate, the dissolved CO can be increased by increasing the flow rate so that culture conversions go below X.

Clostridium ljungdahlii [6] = experiment: Inhibitory CO feed rates, four stage protocol (Example 6); assay type: cell-based; details: for CRT Average (cell retention time): from 18 hours after beginning to end of stage
Procedure: Clostridium ljungdahlii was grown in a bioreactor (New Brunswick BioFlo I or IIc).
To achieve a conductivity of 9 mS/cm, a medium was made using 1.5× of all components except for vitamins. A four stage protocol was used as follows:
Stage 1: A culture was grown up in a 2 L bioreactor using syngas. With a cell density of 2.9 g/L, the gas source was switched from syngas mixture to a CO/N2 mixture containing 95% CO and 5% N2.
Stage 2: At T=26 hrs, a CO conversion target was set at >90%.
Stage 3: At T=70 hrs, the CO conversion target was decreased from 90% to 85%.
Stage 4: At T=97 hrs, the CO conversion target was decreased from 85% to 80%.
Dissolved CO was calculated for each gas sample using representative KLa values for a particular gas flow rate. These values were then averaged to find a representative value for each stage. Pictures were taken throughout the experiment in order to qualitatively study the morphology change over time.
Average cell retention time (CRT) was calculated for the period of 18 hours after the beginning of each stage to the end of each stage.

Clostridium ljungdahlii [7] = experiment: Effect of CO concentration on growth, bioreactor runs (Example 7); assay type: cell-based; details: for bacterial cell density over time: inoculum 3.8 g/L
Procedure: Clostridium ljungdahlii was grown in a bioreactor (New Brunswick BioFlo I or IIc). The following adjustments were made:
Conductivity of the culture was adjusted by adjusting the strength of the growth medium, for example concentration of all the components, except vitamin in the growth medium was increased by 1.5 times to increase the conductivity of the culture from approximately 7 mS to approximately 9.5 mS. […]
Initial gas flow rate of each experiment was kept unchanged throughout the experiment. Reactor parameters, when CO conversion values reach a plateau after a successful start-up, were used to calculate KLa for relevant conditions.
Syngas composition was 30% CO, 15% H2, 10% CO2 and 45% N2.

[8] = Dissolved CO by Henry's law calculation; assay type: physicochemical; details: feeding a gas containing 9.5% CO, 37 to 38° C.
Procedure: In order to calculate dissolved CO, the mass transfer coefficient (KLa) of the system needs to be determined. KLa value will depend on various factors, such as architecture of the reactor, superficial gas flow rate, un-aroused volume, temperature and agitation power. Therefore KLa values vary from reactor conditions to condition.
Henry's law:P=KHC • Henry's constant=KH=p/c (L(psi)/mol) • at 38° C., KH=17640 (L(psi)/mol)
In a CSTR containing CO consuming bacteria, the following equation may be used to estimate dissolved CO. • KLa((PCO(head space)/KH)−(PCO(liquid)/KH))=COU • COU=carbon monoxide uptake (mol/L/min) • KLa=mass transfer coefficient (min^−1) • (PCO(liquid)/KH)=dissolved CO (mol/L)
When dissolved CO=0 • KLa=COU/(PCO(head space)/KH) • KLa((PCO(head space)/KH)−(PCO(liquid)/KH))=COU • KH=L(psi)/mol

[9] = at 38° C.; cited from earlier work
[10] = Stage 2, average dissolved CO 0.04 mmol
[11] = Stage 3, average dissolved CO 0.12 mmol
[12] = Stage 4, average dissolved CO 0.29 mmol
[13] = Run #2: 1× growth medium, 35 ml/min syngas
[14] = Run #3: 1× growth medium, 40 ml/min syngas
[15] = Run #4: 1× growth medium, 45 ml/min syngas
[16] = Run #10: 1.5× growth medium, 20 ml/min syngas

Structure (SMILES): [C-]#[O+] [CO, carbon monoxide]
- cell mass (Clostridium ljungdahlii [1]): 8.24 g/L
- cell mass [2]: 7.88 g/L
- cell mass (Clostridium ljungdahlii [3]): 6.21 g/L
- cell mass [4]: 3.32 g/L
- ethanol production, cell mass and morphology after recovery (Clostridium ljungdahlii [5]; CO conversions returned to approximately 80%): returned to healthy culture levels
- signs of inhibition (ethanol and acetic acid production, SCU, cell mass, cell morphology) (Clostridium ljungdahlii [5]; at approximately 80% CO conversions): didn't show signs of inhibition
- inhibition of culture (Clostridium ljungdahlii [5]; feed gas increased to maintain CO conversions below approximately 70%): inhibited
- SCU Average (specific CO uptake) (Clostridium ljungdahlii [6]; [10]): 0.581 mmol/g/min
- CRT Average (cell retention time) (Clostridium ljungdahlii [6]; [10]): 23.74 h
- SCU Average (specific CO uptake) (Clostridium ljungdahlii [6]; [11]): 0.559 mmol/g/min
- CRT Average (cell retention time) (Clostridium ljungdahlii [6]; [11]): 31.89 h
- SCU Average (specific CO uptake) (Clostridium ljungdahlii [6]; [12]): 0.360 mmol/g/min
- CRT Average (cell retention time) (Clostridium ljungdahlii [6]; [12]): 75.92 h
- dissolved CO at which specific CO uptake proceeded on a downward trend (Clostridium ljungdahlii [6]; Stage 4, conversions coming down to 80%): around 0.2 mmol
- doubling time (Clostridium ljungdahlii [7]; Run #1: 1× growth medium, 25 ml/min syngas): about 20 hours
- initial lag period (Clostridium ljungdahlii [7]; Run #1: 1× growth medium, 25 ml/min syngas (30% CO)): about 20 hours
- doubling time (Clostridium ljungdahlii [7]; [13]): about 20 hours
- initial lag period (Clostridium ljungdahlii [7]; [13]): about 36 hours
- cell morphology (Clostridium ljungdahlii [7]; Run #2: 35 ml/min syngas, at about 51 hours after inoculation): elongated and curved
- doubling time (Clostridium ljungdahlii [7]; [14]): about 20 hours
- initial lag period (Clostridium ljungdahlii [7]; [14]): about 45 hours
- cell morphology (Clostridium ljungdahlii [7]; Run #3: 40 ml/min syngas, at about 51 hours after inoculation): elongated and curved
- doubling time (Clostridium ljungdahlii [7]; [15]): about 20 hours
- initial lag period (Clostridium ljungdahlii [7]; [15]): about 50 hours
- cell morphology (Clostridium ljungdahlii [7]; Run #4: 45 ml/min syngas, at about 55 hours after inoculation): elongated and curved
- lag period (culture continued to lag) (Clostridium ljungdahlii [7]; Run #5: 1× growth medium, 50 ml/min syngas): > 70 h
- doubling time (Clostridium ljungdahlii [7]; Run #6: 1× growth medium, 50 ml/min syngas, higher inoculum): about 20 hours
- initial lag period (Clostridium ljungdahlii [7]; Run #6: 1× growth medium, 50 ml/min syngas, higher inoculum (4.8 vs 3.8 g/L cells)): about 10 hours
- cell morphology (Clostridium ljungdahlii [7]; Run #6: 50 ml/min syngas, higher inoculum, at about 20 hours after inoculation): short and consistent in nature
- bacterial cell density over time (Clostridium ljungdahlii [7]; Run #7: 1.5× growth medium, 45 ml/min syngas): went down with time
- bacterial cell density over time (Clostridium ljungdahlii [7]; Run #8: 1.5× growth medium, 35 ml/min syngas): went down with time
- bacterial cell density over time (Clostridium ljungdahlii [7]; Run #9: 1.5× growth medium, 30 ml/min syngas): went down with time
- doubling time (Clostridium ljungdahlii [7]; [16]): 20 h
- bacterial cell density over time (Clostridium ljungdahlii [7]; [16]): went up with time
- maximum dissolved CO concentration according to Henry's Law [8]: 0.079 mmol
- Henry's constant KH [9]: 17640 L(psi)/mol
